# Assay results from ChEMBL document CHEMBL4477225, “Development of a cell viability assay to assess drug metabolite structure-toxicity relationships” (Bioorg Med Chem Lett, 2016).
# Assays:
# Settings in all cases: recombinant enzyme
# Cytochrome P450 3A4 [1] = molecular target: T1, Cytochrome P450 3A4 (Homo sapiens, UniProt P08684); assay: (§1) Drug activation in human Hep3B cells assessed as human CYP3A4-mediated drug metabolism-induced cytotoxicity measured as decrease in cell viability at 16.3 uM pre-incubated with BSO for 18 hrs followed by incubation with compound for 3 hrs in presence of NADPH measured after 24 hrs in absence of compound, CYP3A4 and NADPH by cell titer-glo luminescence assay relative to BSO alone; type: ADME, cell-based
# T1 sequence (P08684 whole entry): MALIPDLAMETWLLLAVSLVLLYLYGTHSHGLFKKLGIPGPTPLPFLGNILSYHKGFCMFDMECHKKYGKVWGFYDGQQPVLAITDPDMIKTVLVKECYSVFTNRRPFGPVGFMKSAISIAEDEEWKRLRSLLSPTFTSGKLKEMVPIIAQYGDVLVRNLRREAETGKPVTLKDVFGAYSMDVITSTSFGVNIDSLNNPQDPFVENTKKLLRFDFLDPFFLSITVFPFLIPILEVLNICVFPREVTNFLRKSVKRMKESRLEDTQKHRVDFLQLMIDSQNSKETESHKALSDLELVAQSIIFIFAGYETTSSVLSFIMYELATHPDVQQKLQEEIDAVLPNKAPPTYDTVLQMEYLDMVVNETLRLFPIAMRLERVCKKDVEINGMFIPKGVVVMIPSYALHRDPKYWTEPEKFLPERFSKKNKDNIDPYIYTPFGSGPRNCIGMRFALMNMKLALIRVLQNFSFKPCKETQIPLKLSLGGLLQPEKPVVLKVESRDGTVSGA
# Cytochrome P450 2D6 [2] = molecular target: T2, Cytochrome P450 2D6 (Homo sapiens, UniProt P10635); assay: as §1, with “CYP2D6-mediated” for “CYP3A4-mediated”, “15.6” for “16.3”; type: ADME, cell-based
# T2 sequence (P10635 whole entry): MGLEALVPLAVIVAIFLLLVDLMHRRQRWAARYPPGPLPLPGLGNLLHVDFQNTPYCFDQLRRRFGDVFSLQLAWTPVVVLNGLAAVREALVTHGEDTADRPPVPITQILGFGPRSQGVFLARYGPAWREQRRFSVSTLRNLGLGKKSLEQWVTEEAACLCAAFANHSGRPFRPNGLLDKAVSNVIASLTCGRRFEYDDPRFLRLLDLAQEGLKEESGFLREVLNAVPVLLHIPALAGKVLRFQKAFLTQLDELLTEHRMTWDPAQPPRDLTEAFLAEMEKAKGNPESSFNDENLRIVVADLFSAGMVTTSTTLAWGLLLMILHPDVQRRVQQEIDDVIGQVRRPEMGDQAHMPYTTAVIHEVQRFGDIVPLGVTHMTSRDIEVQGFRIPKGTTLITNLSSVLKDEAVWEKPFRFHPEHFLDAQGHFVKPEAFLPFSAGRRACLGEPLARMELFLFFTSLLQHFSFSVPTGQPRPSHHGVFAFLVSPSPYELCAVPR
# Cytochrome P450 2C9 [3] = molecular target: T3, Cytochrome P450 2C9 (Homo sapiens, UniProt P11712); assay: as §1, with “CYP2C9-mediated” for “CYP3A4-mediated”, “17.1” for “16.3”; type: ADME, cell-based
# T3 sequence (P11712 whole entry): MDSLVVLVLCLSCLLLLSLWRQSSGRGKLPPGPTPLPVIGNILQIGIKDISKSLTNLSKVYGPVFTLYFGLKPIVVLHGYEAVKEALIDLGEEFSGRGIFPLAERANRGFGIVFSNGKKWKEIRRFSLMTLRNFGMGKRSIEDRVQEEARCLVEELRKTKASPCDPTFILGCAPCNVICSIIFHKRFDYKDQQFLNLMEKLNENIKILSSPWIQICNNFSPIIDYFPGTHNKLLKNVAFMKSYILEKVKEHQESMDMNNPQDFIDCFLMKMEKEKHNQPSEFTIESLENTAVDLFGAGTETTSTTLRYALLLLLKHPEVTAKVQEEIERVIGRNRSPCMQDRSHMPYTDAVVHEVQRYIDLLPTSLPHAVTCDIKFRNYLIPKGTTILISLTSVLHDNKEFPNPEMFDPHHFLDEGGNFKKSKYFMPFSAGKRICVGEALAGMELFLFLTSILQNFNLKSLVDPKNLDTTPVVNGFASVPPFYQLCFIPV
# Cytochrome P450 2C9 [4] = molecular target: T3, Cytochrome P450 2C9; assay: as §1, with “CYP2C9-mediated” for “CYP3A4-mediated”, “71.3” for “16.3”; type: ADME, cell-based
# Cytochrome P450 3A4 [5] = molecular target: T1, Cytochrome P450 3A4; assay: as §1, with “300” for “16.3”
# Cytochrome P450 2D6 [6] = molecular target: T2, Cytochrome P450 2D6; assay: as §1, with “CYP2D6-mediated” for “CYP3A4-mediated”, “300” for “16.3”
# Cytochrome P450 2C9 [7] = molecular target: T3, Cytochrome P450 2C9; assay: as §1, with “CYP2C9-mediated” for “CYP3A4-mediated”, “34” for “16.3”; type: ADME, cell-based
# Cytochrome P450 2C9 [8] = molecular target: T3, Cytochrome P450 2C9; assay: as §1, with “CYP2C9-mediated” for “CYP3A4-mediated”, “452.5” for “16.3”; type: ADME, cell-based
# Cytochrome P450 3A4 [9] = molecular target: T1, Cytochrome P450 3A4; assay: as §1, with “53.7” for “16.3”; type: ADME, cell-based
# Cytochrome P450 2D6 [10] = molecular target: T2, Cytochrome P450 2D6; assay: as §1, with “CYP2D6-mediated” for “CYP3A4-mediated”, “2.1” for “16.3”; type: ADME, cell-based
# Cytochrome P450 2D6 [11] = molecular target: T2, Cytochrome P450 2D6; assay: as §1, with “CYP2D6-mediated” for “CYP3A4-mediated”, “21.3” for “16.3”; type: ADME, cell-based
# Cytochrome P450 3A4 [12] = molecular target: T1, Cytochrome P450 3A4; assay: as §1, with “74.4” for “16.3”; type: ADME, cell-based
# Cytochrome P450 2C9 [13] = molecular target: T3, Cytochrome P450 2C9; assay: as §1, with “CYP2C9-mediated” for “CYP3A4-mediated”, “51.1” for “16.3”; type: ADME, cell-based
# Cytochrome P450 2C9 [14] = molecular target: T3, Cytochrome P450 2C9; assay: as §1, with “CYP2C9-mediated” for “CYP3A4-mediated”, “39” for “16.3”; type: ADME, cell-based
# Cytochrome P450 2D6 [15] = molecular target: T2, Cytochrome P450 2D6; assay: as §1, with “CYP2D6-mediated” for “CYP3A4-mediated”, “17.6” for “16.3”; type: ADME, cell-based
# Cytochrome P450 3A4 [16] = molecular target: T1, Cytochrome P450 3A4; assay: as §1, with “22.3” for “16.3”; type: ADME, cell-based
# Cytochrome P450 2C9 [17] = molecular target: T3, Cytochrome P450 2C9; assay: as §1, with “CYP2C9-mediated” for “CYP3A4-mediated”, “150” for “16.3”; type: ADME, cell-based
# Cytochrome P450 3A4 [18] = molecular target: T1, Cytochrome P450 3A4; assay: as §1, with “154.5” for “16.3”; type: ADME, cell-based
# Cytochrome P450 2D6 [19] = molecular target: T2, Cytochrome P450 2D6; assay: as §1, with “CYP2D6-mediated” for “CYP3A4-mediated”, “188.9” for “16.3”; type: ADME, cell-based
# Cytochrome P450 3A4 [20] = molecular target: T1, Cytochrome P450 3A4; assay: as §1, with “29.6” for “16.3”; type: ADME, cell-based
# Cytochrome P450 2C9 [21] = molecular target: T3, Cytochrome P450 2C9; assay: as §1, with “CYP2C9-mediated” for “CYP3A4-mediated”, “49.7” for “16.3”; type: ADME, cell-based
# Cytochrome P450 2D6 [22] = molecular target: T2, Cytochrome P450 2D6; assay: as §1, with “CYP2D6-mediated” for “CYP3A4-mediated”, “79.2” for “16.3”; type: ADME, cell-based
# Cytochrome P450 3A4 [23] = molecular target: T1, Cytochrome P450 3A4; assay: as §1, with “14” for “16.3”; type: ADME, cell-based
# Cytochrome P450 2C9 [24] = molecular target: T3, Cytochrome P450 2C9; assay: as §1, with “CYP2C9-mediated” for “CYP3A4-mediated”, “224.2” for “16.3”; type: ADME, cell-based
# Cytochrome P450 2D6 [25] = molecular target: T2, Cytochrome P450 2D6; assay: as §1, with “CYP2D6-mediated” for “CYP3A4-mediated”, “31.6” for “16.3”; type: ADME, cell-based
# Cytochrome P450 2C9 [26] = molecular target: T3, Cytochrome P450 2C9; assay: as §1, with “CYP2C9-mediated” for “CYP3A4-mediated”, “174.8” for “16.3”; type: ADME, cell-based
# Cytochrome P450 3A4 [27] = molecular target: T1, Cytochrome P450 3A4; assay: as §1, with “90.1” for “16.3”; type: ADME, cell-based
# Cytochrome P450 2D6 [28] = molecular target: T2, Cytochrome P450 2D6; assay: as §1, with “CYP2D6-mediated” for “CYP3A4-mediated”, “113.7” for “16.3”; type: ADME, cell-based
# Cytochrome P450 2C9 [29] = molecular target: T3, Cytochrome P450 2C9; assay: as §1, with “CYP2C9-mediated” for “CYP3A4-mediated”, “9.7” for “16.3”; type: ADME, cell-based
# Cytochrome P450 3A4 [30] = molecular target: T1, Cytochrome P450 3A4; assay: as §1, with “7.6” for “16.3”; type: ADME, cell-based
# Cytochrome P450 2D6 [31] = molecular target: T2, Cytochrome P450 2D6; assay: as §1, with “CYP2D6-mediated” for “CYP3A4-mediated”, “12.2” for “16.3”; type: ADME, cell-based
# Cytochrome P450 3A4 [32] = molecular target: T1, Cytochrome P450 3A4; assay: as §1, with “20.4” for “16.3”; type: ADME, cell-based
# Cytochrome P450 2D6 [33] = molecular target: T2, Cytochrome P450 2D6; assay: as §1, with “CYP2D6-mediated” for “CYP3A4-mediated”, “27.8” for “16.3”; type: ADME, cell-based
# Cytochrome P450 2C9 [34] = molecular target: T3, Cytochrome P450 2C9; assay: as §1, with “CYP2C9-mediated” for “CYP3A4-mediated”, “136.1” for “16.3”; type: ADME, cell-based
# Cytochrome P450 2C9 [35] = molecular target: T3, Cytochrome P450 2C9; assay: as §1, with “CYP2C9-mediated” for “CYP3A4-mediated”, “88.3” for “16.3”; type: ADME, cell-based
# Cytochrome P450 2D6 [36] = molecular target: T2, Cytochrome P450 2D6; assay: as §1, with “CYP2D6-mediated” for “CYP3A4-mediated”, “52.1” for “16.3”; type: ADME, cell-based
# Cytochrome P450 3A4 [37] = molecular target: T1, Cytochrome P450 3A4; assay: as §1, with “70.3” for “16.3”; type: ADME, cell-based
# Cytochrome P450 2D6 [38] = molecular target: T2, Cytochrome P450 2D6; assay: as §1, with “CYP2D6-mediated” for “CYP3A4-mediated”, “54.3” for “16.3”; type: ADME, cell-based
# Cytochrome P450 2C9 [39] = molecular target: T3, Cytochrome P450 2C9; assay: as §1, with “CYP2C9-mediated” for “CYP3A4-mediated”, “44” for “16.3”; type: ADME, cell-based
# Cytochrome P450 3A4 [40] = molecular target: T1, Cytochrome P450 3A4; assay: as §1, with “45.8” for “16.3”; type: ADME, cell-based
# Cytochrome P450 2D6 [41] = molecular target: T2, Cytochrome P450 2D6; assay: as §1, with “CYP2D6-mediated” for “CYP3A4-mediated”, “13” for “16.3”; type: ADME, cell-based
# Cytochrome P450 2C9 [42] = molecular target: T3, Cytochrome P450 2C9; assay: as §1, with “CYP2C9-mediated” for “CYP3A4-mediated”, “9.1” for “16.3”; type: ADME, cell-based
# Cytochrome P450 3A4 [43] = molecular target: T1, Cytochrome P450 3A4; assay: as §1, with “53” for “16.3”; type: ADME, cell-based
# Cytochrome P450 2D6 [44] = molecular target: T2, Cytochrome P450 2D6; assay: as §1, with “CYP2D6-mediated” for “CYP3A4-mediated”, “5.8” for “16.3”; type: ADME, cell-based
# Cytochrome P450 2C9 [45] = molecular target: T3, Cytochrome P450 2C9; assay: as §1, with “CYP2C9-mediated” for “CYP3A4-mediated”, “47.3” for “16.3”; type: ADME, cell-based
smiles,measurement,setting,value
CCc1oc2ccccc2c1C(=O)c1cc(I)c(O)c(I)c1 [BENZIODARONE],fold change (FC),Cytochrome P450 3A4 [1],2.2
same,fold change (FC),Cytochrome P450 2D6 [2],2.3
same,fold change (FC),Cytochrome P450 2C9 [3],2.1
CC(C(=O)O)c1cccc(Oc2ccccc2)c1 (stereo not given) [FENOPROFEN],fold change (FC),Cytochrome P450 2C9 [4],4.2
same,FC,Cytochrome P450 3A4 [5],1
same,FC,Cytochrome P450 2D6 [6],1
CC(=O)N1CCN(c2ccc(OCC3COC(Cn4ccnc4)(c4ccc(Cl)cc4Cl)O3)cc2)CC1 (stereo not given) [KETOCONAZOLE],fold change (FC),Cytochrome P450 2C9 [7],1.4
CC(C)NCC(O)COc1cccc2ccccc12 (stereo not given) [PROPRANOLOL],fold change (FC),Cytochrome P450 2C9 [8],0.6
same,fold change (FC),Cytochrome P450 3A4 [9],4.7
same,fold change (FC),Cytochrome P450 2D6 [10],120.7
CN(C)CCCN1c2ccccc2CCc2ccccc21 [IMIPRAMINE],fold change (FC),Cytochrome P450 2D6 [11],0.7
same,fold change (FC),Cytochrome P450 3A4 [12],0.2
same,fold change (FC),Cytochrome P450 2C9 [13],0.3
O=C(c1ccccc1)c1ccc2n1CCC2C(=O)O (stereo not given) [KETOROLAC],fold change (FC),Cytochrome P450 2C9 [14],0.4
same,fold change (FC),Cytochrome P450 2D6 [15],0.8
same,fold change (FC),Cytochrome P450 3A4 [16],0.6
CS(=O)(=O)CCNCc1ccc(-c2ccc3ncnc(Nc4ccc(OCc5cccc(F)c5)c(Cl)c4)c3c2)o1 [LAPATINIB],fold change (FC),Cytochrome P450 2C9 [17],0.3
same,fold change (FC),Cytochrome P450 3A4 [18],0.3
same,fold change (FC),Cytochrome P450 2D6 [19],0.2
CC(C)(O)c1ccccc1CC[C@@H](SCC1(CC(=O)O)CC1)c1cccc(/C=C/c2ccc3ccc(Cl)cc3n2)c1 [MONTELUKAST],fold change (FC),Cytochrome P450 3A4 [20],1.2
same,fold change (FC),Cytochrome P450 2C9 [21],0.7
same,fold change (FC),Cytochrome P450 2D6 [22],0.5
CC(O)(CS(=O)(=O)c1ccc(F)cc1)C(=O)Nc1ccc(C#N)c(C(F)(F)F)c1 (stereo not given) [BICALUTAMIDE],fold change (FC),Cytochrome P450 3A4 [23],1.7
same,fold change (FC),Cytochrome P450 2C9 [24],0.1
same,fold change (FC),Cytochrome P450 2D6 [25],0.7
CC(C)C(=O)Nc1ccc([N+](=O)[O-])c(C(F)(F)F)c1 [FLUTAMIDE],fold change (FC),Cytochrome P450 2C9 [26],0.8
same,fold change (FC),Cytochrome P450 3A4 [27],1.6
same,fold change (FC),Cytochrome P450 2D6 [28],1.2
C1CCC(C(CC2CCCCN2)C2CCCCC2)CC1 (stereo not given) [PERHEXILINE],fold change (FC),Cytochrome P450 2C9 [29],0.5
same,fold change (FC),Cytochrome P450 3A4 [30],0.7
same,fold change (FC),Cytochrome P450 2D6 [31],0.4
CCc1nn(CCCN2CCN(c3cccc(Cl)c3)CC2)c(=O)n1CCOc1ccccc1 [NEFAZODONE],fold change (FC),Cytochrome P450 3A4 [32],4.1
same,fold change (FC),Cytochrome P450 2D6 [33],3
same,fold change (FC),Cytochrome P450 2C9 [34],0.6
C=CC[C@@H]1/C=C(\C)C[C@H](C)C[C@H](OC)[C@H]2O[C@@](O)(C(=O)C(=O)N3CCCC[C@H]3C(=O)O[C@H](/C(C)=C/[C@@H]3CC[C@@H](O)[C@H](OC)C3)[C@H](C)[C@@H](O)CC1=O)[C@H](C)C[C@@H]2OC [TACROLIMUS ANHYDROUS],fold change (FC),Cytochrome P450 2C9 [35],1.3
same,fold change (FC),Cytochrome P450 2D6 [36],2.2
same,fold change (FC),Cytochrome P450 3A4 [37],1.6
CC(C)(C)NC(=O)[C@@H]1C[C@@H]2CCCC[C@@H]2CN1C[C@@H](O)[C@H](Cc1ccccc1)NC(=O)[C@H](CC(N)=O)NC(=O)c1ccc2ccccc2n1,fold change (FC),Cytochrome P450 2D6 [38],0.7
same,fold change (FC),Cytochrome P450 2C9 [39],0.8
same,fold change (FC),Cytochrome P450 3A4 [40],0.8
Fc1ccc([C@@H]2CCNC[C@H]2COc2ccc3c(c2)OCO3)cc1 [PAROXETINE],fold change (FC),Cytochrome P450 2D6 [41],0.4
same,fold change (FC),Cytochrome P450 2C9 [42],0.6
CCc1oc2ccccc2c1C(=O)c1ccc(O)cc1 [BENZARONE],fold change (FC),Cytochrome P450 3A4 [43],0.8
same,fold change (FC),Cytochrome P450 2D6 [44],7.5
same,fold change (FC),Cytochrome P450 2C9 [45],0.9
